Measured values reported in patent US20030114403A1, “Method for treatment of cancers and antineoplastic pharmaceutical formulations” (CANADA Inc., priority 2001, published 2003).

Legend:
[1] = test system: Ehrlich ascites; test: Ehrlich ascites in A2G mice, single intraperitoneal treatment; conditions: for toxic side effects: animals followed up to one month
Method: Normal A2G mice were transplanted 24 hours prior to treatment with 1,000,000 Ehrlich ascites cells. Treatment procedures consisted of a single intraperitoneal injection of malachite green 4/mg/kg or brilliant green 2 mg/kg, with or without 0.7% levorotatory lactic acid.
A lot of 50 A2G mice with a bodyweight of approximately 25 g each were infected with Ehrlich ascites 48 hours prior to treatment. Treatment consisted of one intraperitoneal injection of 1.0 cm^3 brilliant green 1:20,000 solution (2 mg per kilogram) or 1.0 cm^3 of malachite green 1:10,000 (4 mg per kilogram), with 0.7% levorotatory lactic acid.

[2] = test system: Ehrlich ascites cells; test: Transmission electron microscopy of Ehrlich ascites cells from intraperitoneal liquid after treatment; format: cell-based, A2G mice
[3] = single intraperitoneal injection, malachite green 4/mg/kg or brilliant green 2 mg/kg, with or without 0.7% levorotatory lactic acid

| Compound | toxic side effects [1, 3] | resolution of Ehrlich ascites [1, 3] | effect of blocking malignancies ([1]; with lactic acid as specific vector and metabolite, in vitro and in vivo) | inactivation of malignant cells (electron microscope study of intraperitoneal liquid samples) ([2]; one i.p. injection of brilliant green 1:20,000 (2 mg per kilogram) or malachite green 1:10,000 (4 mg per kilogram) with 0.7% levorotatory lactic acid, samples at different times) | lipid droplet synthesis (TEM) ([2]; twenty-four hours after the treatment) | morphology (TEM) of ascites cells in peritoneal fluid ([2]; two weeks post treatment) |
| --- | --- | --- | --- | --- | --- | --- |
| CCN(CC)c1ccc(C(=C2C=CC(=[N+](CC)CC)C=C2)c2ccccc2)cc1 [brilliant green] | no obvious toxic side effects were observed |  |  |  |  |  |
| CN(C)c1ccc(C(=C2C=CC(=[N+](C)C)C=C2)c2ccccc2)cc1 [malachite green] | no obvious toxic side effects were observed | ability to resolve Ehrlich ascites | irreversible effect of blocking malignancies both in vitro and in vivo | complete inactivation of the malignant cells | slowed down | characteristic cytostatic morphology consistent with interruption of cell cycling |
